# Measured values reported in patent US20230010299A1, “HETEROCYCLIC TRPML1 AGONISTS” (LIBRA THERAPEUTICS, INC., priority 2019, published 2023).
# Legend:
# TRPML1 [1] = target: T1, TRPML1 (Homo sapiens, UniProt Q9GZU1); assay: Cellular TRPML1 assay (FLIPR TETRA, GCaMP6f calcium read-out); assay type: cell-based; settings: HEK T-REx/GCaMP6f/TRPML1 cells; Ca2+ response over 300 s, normalized to ML-SA1 50 μM; Ca2+ free or Optimem condition not given; read-out: Ec50 (Activity of TRPML1 agonists)
# T1 construct: expressed in transfected cells
# Protocol: Buffers and reagents • PBS (D-PBS without calcium and magnesium; EuroClone) • Trypsin (Trypsin 0.05%, EDTA 0.02% in PBS; EuroClone) • DMSO (Sigma) • Ca^2+ free Tyrode's buffer: in-house solution (130 mM NaCl, 5 mM KCl, 1 mM MgCl2, 5 mM NaHCO3, 20 mM HEPES in water at pH 7.4; sterile filtered). • Opti-MEM (Gibco) • Agonist: ML-SA1 (Sigma); stock: 60 mM in DMSO, stored at −20° C. • Blocker: ML-SI3 (in house synthesis); stock: 20 mM in DMSO, stored at −20° C.
# The final clone for the TRPML1 assay is HEK T-REx/GCaMP6f/TRPML1.
# GCaMP6f is a genetically encoded calcium indicator that is stably expressed in this cell line and used as a fluorescent read-out.
# Experiments are performed in 384 MTP format. Cells are seeded at 15000 cells/well either in 25 μl/well of growth medium or in 20 μl/well of Optimem+0.5% FBS without selection antibiotics. Twenty-four hours later, cells are assayed for the response to various compounds using the Ca^2+ sensitive GCaMP6f protein stably expressed in the cells as readout.
# The experiment is performed in a 384-well format according to the following procedures for either Ca^2+ free or Optimem conditions: • Ca^2+ free condition (in absence of extracellular Ca^2+): • 24 h after seeding, pre-incubate the cells at room temperature for about 10′. • Then remove the culture medium and replace it with 20 μL of Ca^2+ free Tyrode's buffer. • Start the experiment at the FLIPR^TETRA by injecting 10 μL/w of 3× concentrated test compounds and controls in Ca^2+ free Tyrode's buffer. Monitor the kinetic response over a period of 300 seconds. • Final DMSO concentration: 0.5% • Optimem condition (in presence of extracellular Ca^2+): • 24 h after seeding, pre-incubate the cells at room temperature for about 10′. • Start the experiment at the FLIPR^TETRA by injecting 10 μL/w of 3× concentrated test compounds and controls in Ca^2+ free Tyrode's buffer. Monitor the kinetic response over a period of 300 seconds. • Final DMSO concentration: 0.5%
# Data from FLIPR^TETRA measurements are analyzed with the Genedata Screener® software.
# Stimulator controls (Col 2): injection of ML-SA1 EC100 (50 μM) in alternated wells positions
# Neutral controls (Col 2): injection of 0 mM Ca^2+ free Tyrode's buffer in alternated wells positions.
# Test wells (Col 3-22): test compounds dose response curve from either 100 μM with 1:2 dilution steps or from 50 μM with 1:3.16 dilution steps.
# TRPML1 [2] = target: T1, TRPML1; assay: TRPML1 automated patch-clamp (QPatch 16X); assay type: cell-based; settings: HEK T-REx/GcaMP6f/TRPML1 cells, current with compound/current in vehicle, extracellular pH 4.6
# Protocol: TRPML1—Automated Patch-Clamp
# HEK T-REx/GcaMP6f/TRPML1 cells were cultured in DMEM High Glucose (Lonza BioWhittaker cat. BE12-604F/U1; 500 mL) supplemented with Fetal Bovine Serum TET-FREE (Euroclone cat. EC S0182L; 50 mL, Penicillin-Streptomycin (BioWhittaker, cat. DE17-602E; 5 mL of 100× Solution), G418 (Sigma, cat. G8168; 0.25 mg/ml) and Zeocyn (InvivoGen, cat. ant-zn-1; 50 μg/ml).
# HEK T-REx/GcaMP6f/TRPML1 cells were seeded 48 or 72 hours before experiment, at a concentration of 8*10^6/4*10^6 cells onto a T225 flask. Just before the experiments, cells were washed twice with D-PBS w/o Ca^2+/Mg^2+ (Euroclone cat. ECB4004L) and detached from the flask with trypsin-EDTA (Sigma cat. T4174; diluted 1/10). Cells were then re-suspended in the suspension solution: 25 mL EX-CELL ACF CHO medium(Sigma cat. C5467); 0.625 mL HEPES (Sigma cat. H0887); 0.25 mL of 100× Penicillin/Streptomycin (Euroclone cat. ECB3001D), 0.1 mL of Soybean Trypsin Inhibitor 10 mg/mL (Sigma cat. T6522) and placed on the QPatch 16X.
# Dilution from stock were prepared just before the experiments in the extracellular solution (0.25% final DMSO concentration). DMSO solution was obtained from AppliChem (cat. A3672)
# Patch Clamp Solutions: • Intracellular solution (mM): 120 CsMeSO3, 4 NaCl, 2 MgCl2, 10 EGTA, 20 HEPES, 2 Mg-ATP (pH 7.2 with CsOH). • Extracellular solution (mM): 140 NaGluconate, 5 KCl, 1 MgCl2, 2 CaCl2), 10 Glucose, 10 MES (pH 4.6 with HCl).
# Patch Clamp Analysis—QPatch 16X
# For the voltage clamp experiments on TRPML1, data were sampled at 5 KHz. After establishment of the seal and the passage in the whole cell configuration, the cells were held at −20 mV and the TRPML1 current was evoked using the voltage protocol illustrated in FIG. 2, applied every 5 sec. (50 ms at −20 mV; 20 ms at −120 mV, 1000 ms ramp from −120 to […]; 20 ms at +40 mV, and back to −20 mV); in the absence (vehicle period, i.e. 0.25% DMSO) and in the presence of increasing concentrations (3) of the compound under investigation.
# Agonists: For data collection, the Sophion proprietary software was used and the analysis was performed off-line using Excel and GraphPad Prism (V 8.00). Results are reported in Table 6, expressed as TRPML1 current fold increase evoked by the compound under investigation (i.e. current in the presence of the compound/current in vehicle).
# T1 sequence (Q9GZU1 whole entry): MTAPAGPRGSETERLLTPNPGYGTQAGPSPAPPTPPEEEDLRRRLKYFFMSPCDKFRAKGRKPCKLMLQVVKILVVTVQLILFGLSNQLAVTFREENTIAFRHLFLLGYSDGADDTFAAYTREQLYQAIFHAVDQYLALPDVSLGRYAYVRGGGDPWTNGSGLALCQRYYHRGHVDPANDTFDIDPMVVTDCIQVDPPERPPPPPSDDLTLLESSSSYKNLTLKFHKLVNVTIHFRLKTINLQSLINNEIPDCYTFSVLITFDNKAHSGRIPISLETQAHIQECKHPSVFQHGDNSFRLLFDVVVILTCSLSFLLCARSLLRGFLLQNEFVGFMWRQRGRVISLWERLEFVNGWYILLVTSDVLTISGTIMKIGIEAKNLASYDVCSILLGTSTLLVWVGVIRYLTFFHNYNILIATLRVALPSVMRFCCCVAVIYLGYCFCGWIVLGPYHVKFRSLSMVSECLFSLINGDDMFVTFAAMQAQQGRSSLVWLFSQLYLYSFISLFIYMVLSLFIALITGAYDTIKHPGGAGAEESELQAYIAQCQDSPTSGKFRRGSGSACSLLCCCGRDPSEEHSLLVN
Compound,EC50 (TRPML1 [1]) [µM],Qpatch Assay TRPML1 agonism Current fold increase Mean ± SEM (n) (TRPML1 [2]; 0.3 μM compound),Qpatch Assay TRPML1 agonism Current fold increase Mean ± SEM (n) (TRPML1 [2]; 3.0 μM compound),Qpatch Assay TRPML1 agonism Current fold increase Mean ± SEM (n) (TRPML1 [2]; 30 μM compound)
"CN(C)S(=O)(=O)c1ccc(S(=O)(=O)NC2CCCCC2N2CCC(Oc3ccccc3)CC2)cc1 (single isomer, unassigned) [Example 63, N1,N1-dimethyl-N4-[2-(4-phenoxypiperidin-1-yl)cyclohexyl]benzene-1,4-disulfonamide]",1.7,0.042 ± 0.153 (2),0.86 ± 0.60 (2),4.3 ± 0.9 (2)
"CN(C)S(=O)(=O)c1ccc(S(=O)(=O)Nc2ccccc2N2CCC(Oc3ccccc3)CC2)cc1 [Example 24, N1,N1-dimethyl-N4-[2-(4-phenoxypiperidin-1-yl)phenyl]benzene-1,4-disulfonamide]",2.1,4.6 ± 1.8 (4),168.8 ± 96.1 (4),687.7 (1)
"CN(C)S(=O)(=O)c1ccc(S(=O)(=O)Nc2ccccc2N2CCC(OCc3ccccc3)CC2)cc1 [Example 25, N4-{2-[4-(benzyloxy)piperidin-1-yl]phenyl}-N1,N1-dimethylbenzene-1,4-disulfonamide]",1.8,3.5 ± 1.8 (3),177.1 ± 38.2 (3),1013.8 (1)
"COC1CCN(c2ccccc2NS(=O)(=O)c2ccc(S(=O)(=O)N(C)C)cc2)CC1 [Example 26, N4-[2-(4-methoxypiperidin-1-yl)phenyl]-N1,N1-dimethylbenzene-1,4-disulfonamide]",4.5,0.46 ± 0.16 (3),41.4 ± 21.1,390 ± 158 (3)
"COC(=O)N1CCN(c2ccccc2NS(=O)(=O)c2ccc(S(=O)(=O)N(C)C)cc2)CC1 [Example 52, methyl 4-{2-[4-(dimethylsulfamoyl)benzenesulfonamido]phenyl}piperazine-1-carboxylate]",7.2,1.3 ± 1.0 (3),10.4 ± 3.8 (3),472.5 ± 267.9 (3)
"CN(C)S(=O)(=O)c1ccc(S(=O)(=O)Nc2ccccc2N2CCN(C(=O)OCC(F)(F)F)CC2)cc1 [Example 53, 2,2,2-trifluoroethyl4-{2-[4-(dimethylsulfamoyl)benzenesulfonamido]phenyl}piperazine-1-carboxylate]",3.6,1.9 ± 1.6 (3),88.3 ± 59.9 (3),257.4 ± 190.7 (3)
"CCOC(=O)N1CCN(c2ccccc2NS(=O)(=O)c2ccc(S(=O)(=O)N(C)C)cc2)CC1 [Example 70, ethyl4-{2-[4-(dimethylsulfamoyl)benzenesulfonamido]phenyl}piperazine-1-carboxylate]",3.2,0.5 ± 0.3 (3),22.5 ± 10.6 (3),656.7 ± 150.5 (3)
"CN(C)S(=O)(=O)c1ccc(S(=O)(=O)Nc2ccccc2N2CCN(C(=O)c3ccccc3)CC2)cc1 [Example 73, N4-[2-(4-benzoylpiperazin-1-yl)phenyl]-N1,N1-dimethylbenzene-1,4-disulfonamide]",6.4,−0.070,−0.31,11.3
"CN(C)S(=O)(=O)c1ccc(S(=O)(=O)NCc2ccccc2N2CCCCC2)cc1 [Example 74, N1,N1-dimethyl-N4-{[2-(piperidin-1-yl)phenyl]methyl}benzene-1,4-disulfonamide]",3.2,4.3 ± 2.0 (6),356 ± 69.7 (6),639 + 241 (3)
"CN(C)S(=O)(=O)c1ccc(S(=O)(=O)Nc2ccccc2C2CCN(C(=O)OC(C)(C)C)CC2)cc1 [Example 78, f-butyl 4-{2-[4-(dimethylsulfamoyl)benzenesulfonamido]phenyl} piperidine-1-carboxylate]",6.9,0.68 ± 0.34 (3),16.5 ± 9.1 (3),166 ± 75.7 (3)
"CCCN(C)C(=O)N1CCN(c2ccccc2NS(=O)(=O)c2ccc(S(=O)(=O)N(C)C)cc2)CC1 [Example 82, 4-{2-[4-(dimethylsulfamoyl)benzenesulfonamido]phenyl}-N-methyl-N-propylpiperazine-1-carboxamide]",5.9,2.5 ± 1.3 (3),12.5 ± 8.6 (3),138 ± 55.7 (3)
"Cc1ccc(S(=O)(=O)Nc2ccccc2N2CCN(C(=O)OC(C)(C)C)CC2)cc1 [Example 83, t-butyl 4-[2-(4-methylbenzenesulfonamido)phenyl]piperazine-1-carboxylate]",1.8,70.2 ± 13.8 (4),125.0 ± 31.0 (4),140.3 ± 36.8 (4)
"COC(=O)C1CCN(c2ccccc2NS(=O)(=O)c2ccc(S(=O)(=O)N(C)C)cc2)CC1 [Example 105, methyl 1-(2-((4-(N,N-dimethylsulfamoyl)phenyl)sulfonamido)phenyl)piperidine-4-carboxylate]",18,–,–,–
"CN(C)S(=O)(=O)c1ccc(S(=O)(=O)Nc2ccccc2N2CCC(Oc3ccncc3)CC2)cc1 [Example 106, N1,N1-dimethyl-N4-(2-(4-(pyridin-4-yloxy)piperidin-1-yl)phenyl)benzene-1,4-disulfonamide]",8.6,–,–,–
